The record followed here is patent publication US11306084B2, “Integrin antagonists” (Saint Louis University, priority 2016, dated 2022).

Experiment [1] has as its target T1, Recombinant human integrin ανβ5 (Homo sapiens, UniProt P06756+P18084).
T1 construct: purchased R&D Systems 2528-AV
The experiment can be described thus: Solid Phase Receptor Assay (SPRA) for ανβ5 function. It is filed as binding. The following applies: for IC50: plate-bound human vitronectin, read-out: αvβ5 SPRA IC50. As to the method:
D. Solid Phase Receptor Assay (SPRA) for ανβ5 Function
Wells were washed 3 times with 150 μL TBS+ and then 150 μL of blocking buffer (TBS+ with 1% bovine serum albumin, Sigma A7906) was added. The plate was incubated for 1 hr at 37° C. and then washed 3× with TBS+ buffer. […] Compounds were diluted to 20 μM and then 1 μL was added to each well of the plate according to a standard template with each sample repeated in triplicate. After incubation for two hours at room temperature, the plate was washed 3× with 150 μL of TBS+ buffer. To each well, 50 μl of biotinylated anti-αν antibody (R&D Systems, BAF1219) at 0.5 μg/mL in TBS+/0.1% BSA at 0.5 μg/mL were added and the plate covered and incubated for 1 hr at room temperature. After washing the plate 3 with 150 μL of TBS+ buffer, 50 μL of streptavidin-conjugated horseradish peroxidase (R&D Systems, DY998) diluted in TBS+ blocking buffer were added to the wells and the plate incubated for 20 min at room temperature. The plate was washed 3× with TBS+ buffer followed by 50 μL of TMB substrate (Sigma T4444) added to each well in the dark and the plate incubated for 5 min at room temperature. 25 μL of 1.0 M phosphoric acid was added as a stop solution and the plates were read at 450 nm using a Spectramax plate reader.

In experiment [2] the target is T2, Recombinant human integrin ανβ8 (Homo sapiens, UniProt P06756+P26012).
T2 construct: purchased R&D Systems 4135-AV
Kind of experiment: Solid Phase Receptor Assay (SPRA) for ανβ8 function. It is filed as binding. To be noted: for IC50: plate-bound human LAP, read-out: αvβ8 SPRA IC50. How it is done:
F. Solid Phase Receptor Assay (SPRA) for ανβ8 Function
Wells were washed 3 times with 150 μL TBS+ and then 150 μL of blocking buffer (TBS+ with 1% bovine serum albumin, Sigma A7906) was added. The plate was incubated for 1 hr at 37° C. and then washed 3× with TBS+. […] Compounds were diluted to 20 μM and 1 μL was added to each well of the plate according to a standard template with each sample repeated in triplicate. After incubation for two hours at room temperature, the plate was washed 3× with 150 μL of TBS+. To each well, 50 μL of biotinylated anti-αν antibody (R&D Systems, BAF1219) at 1 μg/mL in TBS+/0.1% BSA were added and the plate was covered and incubated for 1 hr at room temperature. After washing the plate 3× with 150 μL. of TBS+ buffer, 50 μL of streptavidin-conjugated horseradish peroxidase (R&D Systems, DY998) diluted in TBS+ blocking buffer were added to the wells and the plate incubated for 20 min at room temperature. The plate was washed 3× with TBS+ followed by 50 μL of TMB substrate (Sigma T4444) added to each well in the dark and the plate incubated for 10 min at room temperature. 25 μL of 1.0 M phosphoric acid was added as a stop solution and the plates were read at 450 nm using a Spectramax plate reader.

Structures can show the parent of a compound that is named as a salt.

T1 sequence (P06756 31-992 limits assumed): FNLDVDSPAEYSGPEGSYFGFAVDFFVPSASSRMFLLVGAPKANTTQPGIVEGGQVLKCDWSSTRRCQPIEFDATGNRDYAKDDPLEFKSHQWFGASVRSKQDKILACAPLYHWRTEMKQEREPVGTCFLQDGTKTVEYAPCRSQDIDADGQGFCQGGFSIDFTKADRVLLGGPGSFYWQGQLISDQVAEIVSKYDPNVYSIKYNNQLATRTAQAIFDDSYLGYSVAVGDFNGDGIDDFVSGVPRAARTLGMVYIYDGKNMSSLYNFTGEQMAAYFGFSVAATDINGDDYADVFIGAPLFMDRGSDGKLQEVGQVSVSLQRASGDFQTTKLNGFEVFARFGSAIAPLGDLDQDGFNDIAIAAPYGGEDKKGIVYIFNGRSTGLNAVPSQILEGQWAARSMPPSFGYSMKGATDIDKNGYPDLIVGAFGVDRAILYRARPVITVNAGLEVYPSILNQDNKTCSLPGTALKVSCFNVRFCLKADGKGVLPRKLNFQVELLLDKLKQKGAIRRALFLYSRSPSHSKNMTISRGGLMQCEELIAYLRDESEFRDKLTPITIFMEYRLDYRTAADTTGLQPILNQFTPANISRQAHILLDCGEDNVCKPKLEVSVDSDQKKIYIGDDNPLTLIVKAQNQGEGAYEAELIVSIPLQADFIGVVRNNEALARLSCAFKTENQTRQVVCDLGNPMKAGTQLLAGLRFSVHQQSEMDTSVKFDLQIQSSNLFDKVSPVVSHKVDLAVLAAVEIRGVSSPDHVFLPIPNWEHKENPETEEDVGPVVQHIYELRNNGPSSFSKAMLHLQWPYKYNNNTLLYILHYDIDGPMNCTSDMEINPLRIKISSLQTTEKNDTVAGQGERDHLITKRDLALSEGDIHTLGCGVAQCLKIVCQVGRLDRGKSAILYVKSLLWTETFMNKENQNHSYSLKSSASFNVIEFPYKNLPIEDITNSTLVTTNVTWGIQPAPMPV
T1 sequence (P18084 24-719 limits assumed): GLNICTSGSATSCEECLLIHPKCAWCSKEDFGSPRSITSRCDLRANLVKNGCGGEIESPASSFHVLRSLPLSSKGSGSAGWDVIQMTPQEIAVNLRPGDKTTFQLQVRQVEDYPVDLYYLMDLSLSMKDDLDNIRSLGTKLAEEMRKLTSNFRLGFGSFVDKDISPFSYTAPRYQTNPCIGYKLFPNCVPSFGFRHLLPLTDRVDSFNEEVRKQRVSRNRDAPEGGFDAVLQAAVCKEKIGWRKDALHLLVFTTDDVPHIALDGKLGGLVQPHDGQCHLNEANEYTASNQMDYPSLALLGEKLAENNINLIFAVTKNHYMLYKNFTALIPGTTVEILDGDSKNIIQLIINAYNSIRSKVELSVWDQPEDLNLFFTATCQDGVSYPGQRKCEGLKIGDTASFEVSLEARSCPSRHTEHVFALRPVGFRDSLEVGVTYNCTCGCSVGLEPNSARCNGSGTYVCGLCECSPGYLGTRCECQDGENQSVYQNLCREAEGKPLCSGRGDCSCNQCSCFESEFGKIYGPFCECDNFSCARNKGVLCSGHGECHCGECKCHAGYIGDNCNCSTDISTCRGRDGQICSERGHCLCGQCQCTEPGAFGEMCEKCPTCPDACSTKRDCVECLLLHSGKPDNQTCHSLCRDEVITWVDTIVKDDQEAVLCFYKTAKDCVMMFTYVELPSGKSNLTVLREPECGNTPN
T2 sequence (P06756 31-992 limits assumed): as the sequence (P06756 31-992 limits assumed) above
T2 sequence (P26012 43-684 limits assumed): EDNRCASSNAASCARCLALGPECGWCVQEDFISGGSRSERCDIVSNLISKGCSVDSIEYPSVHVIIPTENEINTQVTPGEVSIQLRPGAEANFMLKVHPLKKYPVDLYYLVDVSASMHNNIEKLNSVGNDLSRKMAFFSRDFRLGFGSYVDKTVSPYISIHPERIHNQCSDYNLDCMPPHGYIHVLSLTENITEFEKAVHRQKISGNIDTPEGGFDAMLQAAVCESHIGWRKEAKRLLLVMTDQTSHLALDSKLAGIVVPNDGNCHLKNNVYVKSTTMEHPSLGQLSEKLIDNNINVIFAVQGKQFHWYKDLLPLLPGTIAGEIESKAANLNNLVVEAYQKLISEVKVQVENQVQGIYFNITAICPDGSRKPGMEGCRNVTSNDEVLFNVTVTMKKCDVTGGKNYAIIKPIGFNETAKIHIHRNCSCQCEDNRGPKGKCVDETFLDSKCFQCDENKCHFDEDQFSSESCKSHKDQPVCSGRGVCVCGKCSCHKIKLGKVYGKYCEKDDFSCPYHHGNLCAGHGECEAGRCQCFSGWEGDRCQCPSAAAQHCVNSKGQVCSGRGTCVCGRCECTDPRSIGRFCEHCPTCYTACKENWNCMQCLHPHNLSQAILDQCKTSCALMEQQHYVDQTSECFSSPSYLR

In the case of `Cn1nc(CC(CC(=O)O)c2cc(F)cc(C(C)(C)C(F)(F)F)c2)cc1OCCc1ccc2c(n1)NCCC2` (stereo not shown) [Example 24, 3-(3-fluoro-5-(1,1,1-trifluoro-2-methylpropan-2-yl)phenyl)-4-(1-methyl-5-(2-(5,6,7,8-tetrahydro-1,8-naphthyridin-2-yl)ethoxy)-1H-pyrazol-3-yl)butanoic Acid], the half-maximal inhibitory concentration (IC50) (in general, the midpoint of a concentration-inhibition curve) in experiment [1] stood at 0.2 nM; in experiment [2], 89 nM.
For `Cn1nc(CC(CC(=O)O)c2cc(C(F)(F)F)cc(C(C)(C)C(F)(F)F)c2)cc1OCCc1ccc2c(n1)NCCC2` (stereo not shown) [Example 25, 4-[1-methyl-5-[2-(5,6,7,8-tetrahydro-1,8-naphthyridin-2-yl)ethoxy]pyrazol-3-yl]-3-[3-(2,2,2-trifluoro-1,1-dimethylethyl)-5-(trifluoromethyl)phenyl]butanoic Acid] the same measures were 2.9 nM and 12 nM.
For `Cn1nc(CC(CC(=O)O)c2cc(Br)cc(C(C)(C)C(F)(F)F)c2)cc1OCCc1ccc2c(n1)NCCC2` (stereo not shown) [Example 26, 3-[3-bromo-5-(2,2,2-trifluoro-1,1-dimethyl-ethyl)phenyl]-4-[1-methyl-5-[2-(5,6,7,8-tetrahydro-1,8-naphthyridin-2-yl)ethoxy]pyrazol-3-yl]butanoic Acid] the same measures were 1.8 nM and 9.3 nM.
Regarding `Cn1nc(CC(CC(=O)O)c2cc(Cl)cc(C(C)(C)C(F)(F)F)c2)cc1OCCc1ccc2c(n1)NCCC2` (stereo not shown) [Example 27, 3-(3-chloro-5-(1,1,1-trifluoro-2-methylpropan-2-yl)phenyl)-4-(1-methyl-5-(2-(5,6,7,8-tetrahydro-1,8-naphthyridin-2-yl)ethoxy)-1H-pyrazol-3-yl)butanoic Acid], the half-inhibitory concentration (IC50) in experiment [1] was 0.5 nM; in experiment [2], 11 nM.
For `Cn1nc(CC(CC(=O)O)c2cc(C#N)cc(C(C)(C)C(F)(F)F)c2)cc1OCCc1ccc2c(n1)NCCC2` (stereo not shown) [Example 28, 3-[3-cyano-5-(2,2,2-trifluoro-1,1-dimethyl-ethyl)phenyl]-4-[1-methyl-5-[2-(5,6,7,8-tetrahydro-1,8-naphthyridin-2-yl)ethoxyl]pyrazol-3-yl]butanoic Acid Trifluoroacetate], in that order: 0.8 nM and 3.5 nM.
For `COCC1(c2cc(Cl)cc(C(CC(=O)O)Cc3cc(OCCc4ccc5c(n4)NCCC5)n(C)n3)c2)CCOCC1` (stereo not shown) [Example 29, 3-(3-chloro-5-(4-(methoxymethyl)tetrahydro-2H-pyran-4-yl)phenyl)-4-(1-methyl-5-(2-(5,6,7,8-tetrahydro-1,8-naphthyridin-2-yl)ethoxy)-1H-pyrazol-3-yl)butanoic Acid], in that order: 0.5 nM and 9.5 nM.
Take `COCC1(c2cc(F)cc(C(CC(=O)O)Cc3cc(OCCc4ccc5c(n4)NCCC5)n(C)n3)c2)CCOCC1` (stereo not shown) [Example 30, 3-(3-fluoro-5-(4-(methoxymethyl)tetrahydro-2H-pyran-4-yl)phenyl)-4-(1-methyl-5-(2-(5,6,7,8-tetrahydro-1,8-naphthyridin-2-yl)ethoxy)-1H-pyrazol-3-yl)butanoic Acid]: the 50% inhibitory concentration (IC50) in experiment [1] was 0.5 nM; in experiment [2] it was 81 nM.
Consider `COCC1(c2cc(C(CC(=O)O)Cc3cc(OCCc4ccc5c(n4)NCCC5)n(C)n3)cc(C(F)(F)F)c2)CCOCC1` (stereo not shown) [Example 31, 3-(3-(4-(methoxymethyl)tetrahydro-2H-pyran-4-yl)-5-(trifluoromethyl)phenyl)-4-(1-methyl-5-(2-(5,6,7,8-tetrahydro-1,8-naphthyridin-2-yl)ethoxy)-1H-pyrazol-3-yl)butanoic Acid], for which the figures for the IC50 in experiment [1] and in experiment [2] were 3.3 nM and 9.9 nM, respectively.
For `COc1ccc(C(C)(C)C)cc1C(CC(=O)O)Cc1cc(OCCc2ccc3c(n2)NCCC3)n(C)n1` (stereo not shown) [Example 32, 3-(5-(tert-butyl)-2-methoxyphenyl)-4-(1-methyl-5-(2-(5,6,7,8-tetrahydro-1,8-naphthyridin-2-yl)ethoxy)-1H-pyrazol-3-yl)butanoic Acid], in experiment [1], the “inhibitory activity at ανβ5 (in words)” value is reported as “low activity” and the IC50 was found to be 280 nM. In experiment [2], the “inhibitory activity at ανβ8 (in words)” value was “low activity” and the IC50 was 87 nM.
`COc1c(C(CC(=O)O)Cc2cc(OCCc3ccc4c(n3)NCCC4)n(C)n2)cccc1C(C)(C)C` (stereo not shown) [Example 33, 3-(3-(tert-butyl)-2-methoxyphenyl)-4-(1-methyl-5-(2-(5,6,7,8-tetrahydro-1,8-naphthyridin-2-yl)ethoxy)-1H-pyrazol-3-yl)butanoic Acid]: the IC50 in experiment [1] was found to be 3.1 nM; in experiment [2], 970 nM.
For `COc1cc(C(C)(C)C)ccc1C(CC(=O)O)Cc1cc(OCCc2ccc3c(n2)NCCC3)n(C)n1` (stereo not shown) [Example 34, 3-(4-(tert-butyl)-2-methoxyphenyl)-4-(1-methyl-5-(2-(5,6,7,8-tetrahydro-1,8-naphthyridin-2-yl)ethoxy)-1H-pyrazol-3-yl)butanoic Acid] the same measures were 2.3 nM and 42 nM.
For `Cn1nc(CC(CC(=O)O)c2cc(OC(F)(F)F)cc(C(C)(C)C)c2)cc1OCCc1ccc2c(n1)NCCC2` (stereo not shown) [Example 36, 3-[3-tert-butyl-5-(trifluoromethoxy)phenyl]-4-[1-methyl-5-[2-(5,6,7,8-tetrahydro-1,8-naphthyridin-2-yl)ethoxy]pyrazol-3-yl]butanoic Acid] the same measures were 1.1 nM and 40 nM.
For `Cn1nc(CC(CC(=O)O)c2cc(C(C)(C)C)cc(C(F)(F)F)c2)cc1OCCc1ccc2c(n1)NCCC2` (stereo not shown) [Example 37, 3-[3-tert-butyl-5-(trifluoromethyl)phenyl]-4-[1-methyl-5-[2-(5,6,7,8-tetrahydro-1,8-naphthyridin-2-yl)ethoxyl]pyrazol-3-yl]butanoic Acid], in that order: 6.2 nM and 18 nM.
For the compound `Cn1nc(CC(CC(=O)O)c2cc(F)cc(C(C)(C)C)c2)cc1OCCc1ccc2c(n1)NCCC2` (stereo not shown) [Example 38, 3-(3-(tert-butyl)-5-fluorophenyl)-4-(1-methyl-5-(2-(5,6,7,8-tetrahydro-1,8-naphthyridin-2-yl)ethoxy)-1H-pyrazol-3-yl)butanoic Acid], the IC50 is 0.3 nM in experiment [1] and 140 nM in experiment [2].
For `COc1ccc(C(C)C)cc1C(CC(=O)O)Cc1cc(OCCc2ccc3c(n2)NCCC3)n(C)n1` (stereo not shown) [Example 39, 3-(5-isopropyl-2-methoxyphenyl)-4-(1-methyl-5-(2-(5,6,7,8-tetrahydro-1,8-naphthyridin-2-yl)ethoxy)-1H-pyrazol-3-yl)butanoic Acid Trifluoroacetate], in that order: 96 nM and 110 nM.
For `CC(C)c1cc(Br)cc(C(CC(=O)O)Cc2cc(OCCc3ccc4c(n3)NCCC4)n(C)n2)c1` (stereo not shown) [Example 40, 3-(3-bromo-5-isopropyl-phenyl)-4-[1-methyl-5-[2-(5,6,7,8-tetrahydro-1,8-naphthyridin-2-yl)ethoxyl]pyrazol-3-yl]butanoic acid trifluoroacetate] the same measures were 1.1 nM and 9 nM.
`CC(C)(C)c1cc(Br)cc(C(CC(=O)O)Cc2cc(OCCc3ccc4c(n3)NCCC4)n(CC(F)(F)F)n2)c1` (stereo not shown) [Example 41, 3-(3-bromo-5-tert-butyl-phenyl)-4-[5-[2-(5,6,7,8-tetrahydro-1,8-naphthyridin-2-yl)ethoxy]-1-(2,2,2-trifluoroethyl)pyrazol-3-yl]butanoic Acid Trifluoroacetate]: the IC50 in experiment [1] was 2.2 nM; in experiment [2] it was 6.9 nM.
For `Cn1nc(CC(CC(=O)O)c2cc(C(C)(C)C)ccc2O)cc1OCCc1ccc2c(n1)NCCC2` (stereo not shown) [Example 42, 3-(5-tert-butyl-2-hydroxy-phenyl)-4-[1-methyl-5-[2-(5,6,7,8-tetrahydro-1,8-naphthyridin-2-yl)ethoxyl]pyrazol-3-yl]butanoic Acid Sodium Salt], in that order: 6.6 nM and 3.1 nM.
For `Cn1nc(CC(CC(=O)O)c2cc(C(C)(C)C)ccc2Cl)cc1OCCc1ccc2c(n1)NCCC2` (stereo not shown) [Example 43, 3-(5-(tert-butyl)-2-chlorophenyl)-4-(1-methyl-5-(2-(5,6,7,8-tetrahydro-1,8-naphthyridin-2-yl)ethoxy)-1H-pyrazol-3-yl)butanoic Acid Trifluoroacetate] the same measures were 16.6 nM and 88 nM.
